From patent publication US12065436B2, “Cardiac sarcomere inhibitors” (Cytokinetics, Inc., priority 2018, dated 2024) come the findings set out here.

The assay concerns the target bovine cardiac myofibrils (full-length cardiac myosin ATPase in the native sarcomere) (Bos taurus (Bovine), UniProt Q9BE39). Briefly: Skinned bovine cardiac myofibril ATPase assay (PK/LDH-coupled). The class given is biochemical. The note with it: Ca2+ activating to 75% of maximal rate; for CDMF75 IC15: concentration giving 15% inhibition; for IC50: read-out: CDMF75 IC50. The procedure, abridged: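 Triton-skinned bovine left-ventricle myofibrils (1 mg/mL) in PM 12 buffer (12 mM PIPES, 2 mM MgCl2, pH 6.8) with 50 μM ATP, 0.6 mM EGTA and CaCl2 set for 50% or 75% activation. Steady-state ATPase inhibition followed by PK/LDH-coupled NADH oxidation at 340 nm.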

Chain of bovine cardiac myofibrils (full-length cardiac myosin ATPase in the native sarcomere) (Q9BE39 whole entry): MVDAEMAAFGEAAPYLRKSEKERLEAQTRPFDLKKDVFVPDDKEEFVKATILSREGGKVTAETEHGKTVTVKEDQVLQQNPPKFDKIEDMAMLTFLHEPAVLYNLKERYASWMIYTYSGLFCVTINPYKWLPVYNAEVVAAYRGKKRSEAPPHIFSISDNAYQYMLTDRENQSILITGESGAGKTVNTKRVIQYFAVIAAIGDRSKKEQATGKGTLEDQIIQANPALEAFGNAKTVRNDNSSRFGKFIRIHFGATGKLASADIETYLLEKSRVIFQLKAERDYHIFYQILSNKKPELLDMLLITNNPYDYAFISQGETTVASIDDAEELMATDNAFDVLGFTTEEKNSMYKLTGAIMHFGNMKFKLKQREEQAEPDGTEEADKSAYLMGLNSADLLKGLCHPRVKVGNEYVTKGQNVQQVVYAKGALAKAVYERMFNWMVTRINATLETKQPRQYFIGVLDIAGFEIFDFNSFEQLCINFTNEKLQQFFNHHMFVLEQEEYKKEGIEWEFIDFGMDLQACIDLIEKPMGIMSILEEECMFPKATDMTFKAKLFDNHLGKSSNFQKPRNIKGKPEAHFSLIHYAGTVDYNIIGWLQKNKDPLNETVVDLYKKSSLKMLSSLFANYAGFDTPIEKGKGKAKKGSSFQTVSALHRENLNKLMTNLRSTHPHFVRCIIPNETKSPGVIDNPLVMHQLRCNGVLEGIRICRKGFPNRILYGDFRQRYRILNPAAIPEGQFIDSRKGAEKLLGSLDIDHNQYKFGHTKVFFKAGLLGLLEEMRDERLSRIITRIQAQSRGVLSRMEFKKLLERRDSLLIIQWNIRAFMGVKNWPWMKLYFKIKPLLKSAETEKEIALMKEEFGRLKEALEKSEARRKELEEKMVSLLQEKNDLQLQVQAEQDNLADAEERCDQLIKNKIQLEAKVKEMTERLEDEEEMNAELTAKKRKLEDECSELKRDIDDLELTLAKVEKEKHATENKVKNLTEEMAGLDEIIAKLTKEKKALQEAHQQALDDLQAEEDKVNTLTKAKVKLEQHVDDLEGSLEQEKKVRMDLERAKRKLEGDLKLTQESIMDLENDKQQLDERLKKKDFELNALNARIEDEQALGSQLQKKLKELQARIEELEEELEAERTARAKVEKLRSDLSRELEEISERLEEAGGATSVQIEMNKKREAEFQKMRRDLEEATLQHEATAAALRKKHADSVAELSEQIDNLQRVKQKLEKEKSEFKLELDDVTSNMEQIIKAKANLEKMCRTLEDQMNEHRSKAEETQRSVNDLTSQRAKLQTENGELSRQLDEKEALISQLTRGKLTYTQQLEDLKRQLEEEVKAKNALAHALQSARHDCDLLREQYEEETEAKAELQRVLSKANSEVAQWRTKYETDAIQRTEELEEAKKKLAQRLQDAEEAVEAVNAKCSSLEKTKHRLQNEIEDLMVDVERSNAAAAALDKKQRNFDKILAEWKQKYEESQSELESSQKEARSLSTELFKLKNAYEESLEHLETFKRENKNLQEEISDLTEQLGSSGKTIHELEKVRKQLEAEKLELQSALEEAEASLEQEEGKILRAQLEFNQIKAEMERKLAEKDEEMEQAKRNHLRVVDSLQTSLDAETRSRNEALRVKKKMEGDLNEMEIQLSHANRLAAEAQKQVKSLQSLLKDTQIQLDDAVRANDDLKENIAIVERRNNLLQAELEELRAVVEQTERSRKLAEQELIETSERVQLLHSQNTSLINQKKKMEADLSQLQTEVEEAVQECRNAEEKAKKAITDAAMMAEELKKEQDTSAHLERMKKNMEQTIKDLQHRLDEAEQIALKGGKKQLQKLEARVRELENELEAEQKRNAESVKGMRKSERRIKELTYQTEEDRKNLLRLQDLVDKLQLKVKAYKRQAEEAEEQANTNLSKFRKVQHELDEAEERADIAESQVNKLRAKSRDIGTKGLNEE
Chain of bovine cardiac myofibrils (full-length cardiac myosin ATPase in the native sarcomere) (P85100 whole entry partner): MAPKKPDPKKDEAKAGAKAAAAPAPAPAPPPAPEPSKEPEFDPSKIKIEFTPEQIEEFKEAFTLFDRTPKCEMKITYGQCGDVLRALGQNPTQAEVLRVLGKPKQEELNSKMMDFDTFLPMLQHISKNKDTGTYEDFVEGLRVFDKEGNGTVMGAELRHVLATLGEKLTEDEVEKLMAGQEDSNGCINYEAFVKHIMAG
Chain of bovine cardiac myofibrils (full-length cardiac myosin ATPase in the native sarcomere) (Q3SZE5 whole entry partner): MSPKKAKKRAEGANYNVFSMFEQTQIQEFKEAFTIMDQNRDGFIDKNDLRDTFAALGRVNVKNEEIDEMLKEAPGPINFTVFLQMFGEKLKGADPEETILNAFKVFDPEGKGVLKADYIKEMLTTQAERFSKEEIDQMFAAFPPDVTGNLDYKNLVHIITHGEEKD

For the compound `CCc1nc(-c2ccc3c(c2)CC[C@H]3NC(=O)c2cnn(CC(OC)OC)c2)no1` [Compound 530, (R)-1-(2,2-dimethoxyethyl)-N-(5-(5-ethyl-1,2,4-oxadiazol-3-yl)-2,3-dihydro-1H-inden-1-yl)-1H-pyrazole-4-carboxamide], the “CDMF75 IC15” value is 2.6 µM and the IC50 was determined as 8.9 µM.

Regarding `Cc1ncc(C(=O)NC2COc3cc(-c4noc(C(F)F)n4)ccc32)o1` (stereo not shown) [Compound 205, N-(6-(5-(difluoromethyl)-1,2,4-oxadiazol-3-yl)-2,3-dihydrobenzofuran-3-yl)-2-methyloxazole-5-carboxamide], the “CDMF75 IC15” value turned out to be 1.1 µM and the IC50 is 4 µM.

Consider `CCc1nc(-c2ccc3c(c2)CC[C@H]3NC(=O)c2cnn(CC(C)(C)O)c2)no1` [Compound 476, (R)-N-(5-(5-ethyl-1,2,4-oxadiazol-3-yl)-2,3-dihydro-1H-inden-1-yl)-1-(2-hydroxy-2-methylpropyl)-1H-pyrazole-4-carboxamide], for which the “CDMF75 IC15” value worked out at 4.2 µM and the IC50 is 19.5 µM.

Regarding `CCc1nc(-c2ccc3c(c2)CC[C@H]3NC(=O)c2c[nH]nc2C)no1` [Compound 398, (R)-N-(5-(5-ethyl-1,2,4-oxadiazol-3-yl)-2,3-dihydro-1H-inden-1-yl)-3-methyl-1H-pyrazole-4-carboxamide], the “CDMF75 IC15” value worked out at 0.4 µM and the IC50 stood at 1.2 µM.

With `Cc1nc(-c2ccc3c(c2)OCC3NC(=O)c2cnn(C)c2C)no1` (stereo not shown) [Compound 162, 1,5-dimethyl-N-(6-(5-methyl-1,2,4-oxadiazol-3-yl)-2,3-dihydrobenzofuran-3-yl)-1H-pyrazole-4-carboxamide], the “CDMF75 IC15” value is 1.6 µM and the IC50 came to 6.4 µM.

With `COC(=O)N[C@@H]1CCc2cc(-c3noc(C(C)C)n3)ccc21` [Compound 307, methyl (R)-(5-(5-isopropyl-1,2,4-oxadiazol-3-yl)-2,3-dihydro-1H-inden-1-yl)carbamate], the “CDMF75 IC15” value turned out to be 0.6 µM and the IC50 is 2.9 µM.

On to `Cn1nnc(C(=O)NC2COc3cc(-c4noc(C(F)F)n4)ccc32)n1` (stereo not shown) [Compound 197, N-(6-(5-(difluoromethyl)-1,2,4-oxadiazol-3-yl)-2,3-dihydrobenzofuran-3-yl)-2-methyl-2H-tetrazole-5-carboxamide], for which the “CDMF75 IC15” value amounted to 3.2 µM and the IC50 was determined as 12.4 µM.

In the case of `COCc1nc(-c2ccc3c(c2)CC[C@H]3NC(=O)c2cccc(C(C)O)c2)no1` (stereo partly drawn) [Compound 722, 3-(1-hydroxyethyl)-N-((R)-5-(5-(methoxymethyl)-1,2,4-oxadiazol-3-yl)-2,3-dihydro-1H-inden-1-yl)benzamide], the “CDMF75 IC15” value is 1.4 µM and the IC50 is 5.6 µM.

For `Cc1cnoc1C(=O)N[C@@H]1CCc2cc(-c3noc(C4COC4)n3)ccc21` [Compound 117, (R)-4-methyl-N-(5-(5-(oxetan-3-yl)-1,2,4-oxadiazol-3-yl)-2,3-dihydro-1H-inden-1-yl)isoxazole-5-carboxamide], the “CDMF75 IC15” value came out at 1.9 µM and the IC50 came to 10.1 µM.

In the case of `[2H]C([2H])([2H])c1noc(-c2ccc3c(c2)CC[C@H]3NC(=O)c2nnn(C)n2)n1` [Compound 272, (R)-2-methyl-N-(5-(3-(methyl-d3)-1,2,4-oxadiazol-5-yl)-2,3-dihydro-1H-inden-1-yl)-2H-tetrazole-5-carboxamide], the “CDMF75 IC15” value amounted to 1.2 µM and the IC50 came to 4.3 µM.

With `Cc1nc(-c2ccc3c(c2)CC[C@H]3NC(=O)c2ccc3[nH]c(=O)[nH]c3c2)no1` [Compound 125, (R)-N-(5-(5-methyl-1,2,4-oxadiazol-3-yl)-2,3-dihydro-1H-inden-1-yl)-2-oxo-2,3-dihydro-1H-benzo[d]imidazole-5-carboxamide], the “CDMF75 IC15” value turned out to be 1.6 µM and the half-inhibitory concentration (IC50) was determined as 6.2 µM.

As for `CCc1nc(-c2ccc3c(c2)CC[C@H]3NC(=O)c2ccnnc2C)no1` [Compound 637, (R)-N-(5-(5-ethyl-1,2,4-oxadiazol-3-yl)-2,3-dihydro-1H-inden-1-yl)-3-methylpyridazine-4-carboxamide], the “CDMF75 IC15” value stood at 3.1 µM and the IC50 came out at 11.6 µM.

Consider `Cc1cc(C(=O)N[C@@H]2CCc3cc(-c4nc(C)co4)ccc32)ccn1` [Compound 172, (R)-2-methyl-N-(5-(4-methyloxazol-2-yl)-2,3-dihydro-1H-inden-1-yl)isonicotinamide], for which the “CDMF75 IC15” value is 8.1 µM and the IC50 was > 39.2 µM.

On to `CC#Cc1ccc2c(c1)CC[C@H]2NC(=O)c1ccnn1C` [Compound 452, (R)-1-methyl-N-(5-(prop-1-yn-1-yl)-2,3-dihydro-1H-inden-1-yl)-1H-pyrazole-5-carboxamide], for which the “CDMF75 IC15” value was determined as 4.3 µM and the IC50 amounted to 20.3 µM.

Take `Cc1cnc(-c2ccc3c(c2)CC[C@H]3NC(=O)c2ccnn2C)s1` [Compound 371, (R)-1-methyl-N-(5-(5-methylthiazol-2-yl)-2,3-dihydro-1H-inden-1-yl)-1H-pyrazole-5-carboxamide]: the “CDMF75 IC15” value is 0.7 µM and the IC50 was found to be 2.9 µM.

Turning to `CCc1nc(-c2ccc3c(c2)CC[C@H]3NC(=O)c2cc(CO)ccc2F)no1` [Compound 649, (R)-N-(5-(5-ethyl-1,2,4-oxadiazol-3-yl)-2,3-dihydro-1H-inden-1-yl)-2-fluoro-5-(hydroxymethyl)benzamide], the “CDMF75 IC15” value is 0.9 µM and the IC50 stood at 3.4 µM.

On to `COCc1nc(-c2ccc3c(c2)CC[C@H]3NC(=O)c2nonc2C)no1` [Compound 692, (R)-N-(5-(5-(methoxymethyl)-1,2,4-oxadiazol-3-yl)-2,3-dihydro-1H-inden-1-yl)-4-methyl-1,2,5-oxadiazole-3-carboxamide], for which the “CDMF75 IC15” value amounted to 1.0 µM and the half-inhibitory concentration (IC50) was determined as 4.6 µM.

As to `[2H]C([2H])([2H])c1nc(-c2ccc3c(c2)OC[C@H]3NC(=O)c2cc(C)nn2C)no1` [Compound 266, (S)-1,3-dimethyl-N-(6-(5-(methyl-d3)-1,2,4-oxadiazol-3-yl)-2,3-dihydrobenzofuran-3-yl)-1H-pyrazole-5-carboxamide], the “CDMF75 IC15” value came to 0.9 µM and the IC50 worked out at 2.7 µM.

On to `Cc1ncc(C(=O)N[C@@H]2CCc3cc(-c4noc(C5CCC5)n4)ccc32)o1` [Compound 410, (R)-N-(5-(5-cyclobutyl-1,2,4-oxadiazol-3-yl)-2,3-dihydro-1H-inden-1-yl)-2-methyloxazole-5-carboxamide], for which the “CDMF75 IC15” value is 0.9 µM and the IC50 came to 3.5 µM.

`Cc1nc(-c2ccc3c(c2)CCC3NC(=O)c2ocnc2C)no1` (stereo not shown) [Compound 51, 4-methyl-N-(5-(5-methyl-1,2,4-oxadiazol-3-yl)-2,3-dihydro-1H-inden-1-yl)oxazole-5-carboxamide]: the “CDMF75 IC15” value came to 1.2 µM and the IC50 turned out to be 3.6 µM.

On to `Cc1cc(C(=O)NC2COc3cc(-c4noc(C(F)F)n4)cnc32)ccn1` (stereo not shown) [Compound 195, N-(6-(5-(difluoromethyl)-1,2,4-oxadiazol-3-yl)-2,3-dihydrofuro[3,2-b]pyridin-3-yl)-2-methylisonicotinamide], for which the “CDMF75 IC15” value is 10.1 µM and the IC50 was > 39.2 µM.

As to `Cc1nc(-c2ccc3c(c2)OCC3NC(=O)c2cn(C)nc2C)no1` (stereo not shown) [Compound 157, 1,3-dimethyl-N-(6-(5-methyl-1,2,4-oxadiazol-3-yl)-2,3-dihydrobenzofuran-3-yl)-1H-pyrazole-4-carboxamide], the “CDMF75 IC15” value amounted to 1.4 µM and the IC50 came to 5.9 µM.

On to `Cn1nccc1C(=O)N[C@@H]1CCc2cc(-c3ccccn3)ccc21` [Compound 367, (R)-1-methyl-N-(5-(pyridin-2-yl)-2,3-dihydro-1H-inden-1-yl)-1H-pyrazole-5-carboxamide], for which the “CDMF75 IC15” value was 13.9 µM and the IC50 was > 39.2 µM.

Turning to `COCc1nc(-c2ccc3c(c2)CC[C@H]3NC(=O)c2cccc(CO)c2F)no1` [Compound 670, (R)-2-fluoro-3-(hydroxymethyl)-N-(5-(5-(methoxymethyl)-1,2,4-oxadiazol-3-yl)-2,3-dihydro-1H-inden-1-yl)benzamide], the “CDMF75 IC15” value came out at 5.8 µM and the IC50 stood at 26.6 µM.

For `CCc1nc(-c2ccc3c(c2)CC[C@H]3NC(=O)c2cccnc2)no1` [Compound 624, (R)-N-(5-(5-ethyl-1,2,4-oxadiazol-3-yl)-2,3-dihydro-1H-inden-1-yl)nicotinamide], the “CDMF75 IC15” value was 0.4 µM and the IC50 turned out to be 1.5 µM.

As to `CCc1nc(-c2ccc3c(c2)CC[C@H]3NC(=O)c2cnn(C3CN(C(N)=O)C3)c2)no1` [Compound 481, (R)-1-(1-carbamoylazetidin-3-yl)-N-(5-(5-ethyl-1,2,4-oxadiazol-3-yl)-2,3-dihydro-1H-inden-1-yl)-1H-pyrazole-4-carboxamide], the “CDMF75 IC15” value came to 1.9 µM and the IC50 stood at 7.8 µM.

Take `CCc1nc(-c2ccc3c(c2)CC[C@H]3NC(=O)c2cnn(CC3(C)COC3)c2)no1` [Compound 507, (R)-N-(5-(5-ethyl-1,2,4-oxadiazol-3-yl)-2,3-dihydro-1H-inden-1-yl)-1-((3-methyloxetan-3-yl)methyl)-1H-pyrazole-4-carboxamide]: the “CDMF75 IC15” value came to 32.6 µM and the IC50 was determined as 39.2 µM.

With `CCc1nc(-c2ccc3c(c2)CC[C@H]3NC(=O)OCCOC)no1` [Compound 324, 2-methoxyethyl (R)-(5-(5-ethyl-1,2,4-oxadiazol-3-yl)-2,3-dihydro-1H-inden-1-yl)carbamate], the “CDMF75 IC15” value amounted to 0.8 µM and the IC50 was 3.2 µM.

For the compound `Cc1cccc(-c2ccc3c(c2)CC[C@H]3NC(=O)c2ccnn2C)n1` [Compound 377, (R)-1-methyl-N-(5-(6-methylpyridin-2-yl)-2,3-dihydro-1H-inden-1-yl)-1H-pyrazole-5-carboxamide], the “CDMF75 IC15” value amounted to 4.5 µM and the IC50 stood at 17.8 µM.
